This note sets out measurements from patent US11351178B2, “Selective HDAC6 inhibitors” (ITALFARMACO S.P.A., priority 2017, dated 2022).

Each structure is given as a SMILES string.

In the first data set the target is T1, recombinant human HDAC6 (Homo sapiens, UniProt Q9UBN7).
T1 sequence (Q9UBN7 1-1215): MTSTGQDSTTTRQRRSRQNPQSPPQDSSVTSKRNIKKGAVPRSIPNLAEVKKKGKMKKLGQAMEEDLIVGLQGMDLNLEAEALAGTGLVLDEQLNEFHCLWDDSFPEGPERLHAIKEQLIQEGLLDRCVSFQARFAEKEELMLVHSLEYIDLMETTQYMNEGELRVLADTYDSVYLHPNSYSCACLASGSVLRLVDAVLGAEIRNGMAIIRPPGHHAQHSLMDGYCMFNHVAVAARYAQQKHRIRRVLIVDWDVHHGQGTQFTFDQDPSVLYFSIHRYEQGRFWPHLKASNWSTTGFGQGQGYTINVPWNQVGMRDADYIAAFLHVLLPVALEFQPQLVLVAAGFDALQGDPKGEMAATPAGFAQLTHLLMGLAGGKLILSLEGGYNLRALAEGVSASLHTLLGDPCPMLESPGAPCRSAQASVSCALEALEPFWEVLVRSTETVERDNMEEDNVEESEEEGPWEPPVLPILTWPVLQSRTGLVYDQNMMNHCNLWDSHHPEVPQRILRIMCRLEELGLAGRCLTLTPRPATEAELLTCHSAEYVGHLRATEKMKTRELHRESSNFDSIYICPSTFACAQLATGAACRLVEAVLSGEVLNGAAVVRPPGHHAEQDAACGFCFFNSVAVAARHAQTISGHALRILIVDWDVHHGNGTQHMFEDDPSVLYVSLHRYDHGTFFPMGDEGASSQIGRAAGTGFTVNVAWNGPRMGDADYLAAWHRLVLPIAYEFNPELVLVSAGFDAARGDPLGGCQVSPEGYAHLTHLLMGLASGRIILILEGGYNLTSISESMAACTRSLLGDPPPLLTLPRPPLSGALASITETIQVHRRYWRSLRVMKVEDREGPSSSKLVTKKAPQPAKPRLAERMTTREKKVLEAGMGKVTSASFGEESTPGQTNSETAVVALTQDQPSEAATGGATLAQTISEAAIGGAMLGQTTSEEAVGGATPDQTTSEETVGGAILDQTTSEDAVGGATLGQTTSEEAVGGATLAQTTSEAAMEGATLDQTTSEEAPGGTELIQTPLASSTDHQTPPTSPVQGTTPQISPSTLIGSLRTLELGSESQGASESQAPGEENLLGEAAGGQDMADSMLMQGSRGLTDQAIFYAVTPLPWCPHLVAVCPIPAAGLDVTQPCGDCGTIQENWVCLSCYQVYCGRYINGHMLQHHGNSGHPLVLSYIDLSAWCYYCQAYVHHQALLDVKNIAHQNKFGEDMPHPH
Kind of data set: Enzymatic screening on recombinant human HDAC6. The class given is biochemical. Conditions: Table 2; read-out: HDAC6 IC50. As to the method:
Enzymatic activity on recombinant human HDAC6 and HDAC3 was evaluated (Table 2) for each synthesized compound.
After a period of incubation at 30° C. (incubation times vary for different isoforms and are shown in table 1) 25 μL of solution containing the substrate were added. As substrate, FLUOR DE LYS® deacetylase substrate (Enzo Life Sciences, cat #BML-K1104, FdL), FLUOR DE LYS®-Green substrate (Enzo Life Sciences, cat #BML-K1572 FdL_G) and trifluoroacetyl-L-lysine (Tfal)-2× concentrated solution in 25 mM Tris-HCl, pH 8, 130 mM NaCl 0.05% Tween-20 10% glycerol) were used. Following a reaction period at 30° C.
As a reminder, the IC50 is the concentration that gives 50% inhibition. As to `O=C(NO)c1ccc(Cn2nnc(-c3ccc(Cl)cc3Cl)n2)cc1` [comp. 38, 4-[[5-(2,4-dichlorophenyl)tetrazol-2-yl]methyl]benzenecarbohydroxamic acid], the concentration for half-maximal inhibition (IC50) came out at 10 nM.

Regarding `O=C(NO)c1ccc(Cn2nnc(-c3csc4ccccc34)n2)cc1` [comp. 42, 4-[[5-(benzothiophen-3-yl)tetrazol-2-yl]methyl]benzenecarbohydroxamic acid], the IC50 was 5 nM. On the same count and under the same terms, to `CSc1sc(-c2nnn(Cc3ccc(C(=O)NO)cc3)n2)c2c1C(=O)CC(C)(C)C2` [comp. 54, 4-[[5-(6,6-dimethyl-3-methylsulfanyl-4-oxo-5,7-dihydro-2-benzothiophen-1-yl)tetrazol-2-yl]methyl]benzenecarbohydroxamic acid] belongs 18 nM; to `O=C(NO)c1ccc(Cn2nnc(-c3cc4ccccc4s3)n2)cc1` [comp. 55, 4-[[5-(benzothiophen-2-yl)tetrazol-2-yl]methyl]benzenecarbohydroxamic acid], 6 nM. Same read-out and setting: to `O=C(NO)c1cc(F)c(Cn2nnc(-c3ccc(S(F)(F)(F)(F)F)cc3)n2)c(F)c1` [comp. 112, 3,5-difluoro-4-[[5-[4-(pentafluoro-lambda6-sulfanyl)phenyl]tetrazol-2-yl]methyl]benzenecarbohydroxamic acid] belongs 123 nM; to `O=C(NO)c1cc(F)c(Cn2nnnc2-c2ccc(S(F)(F)(F)(F)F)cc2)c(F)c1` [comp. 113, 3,5-difluoro-4-[[5-[4-(pentafluoro-lambda6-sulfanyl)phenyl]tetrazol-1-yl]methyl]benzenecarbohydroxamic acid], 158 nM; to `Cn1c(Sc2c(F)cc(C(=O)NO)cc2F)nnc1-c1cccc(N2CC[N+](C)([O-])CC2)c1` [comp. 114, 3,5-difluoro-4-[[4-methyl-5-[3-(4-methyl-4-oxido-piperazin-4-ium-1-yl)phenyl]-1,2,4-triazol-3-yl]sulfanyl]benzenecarbohydroxamic acid], 256 nM. As for `Cn1c(Sc2c(F)cc(C(=O)NO)cc2F)nnc1-c1scc2c1OCCO2` [comp. 118, 4-[[5-(2,3-dihydrothieno[3,4-b][1,4]dioxin-5-yl)-4-methyl-1,2,4-triazol-3-yl]sulfanyl]-3,5-difluoro-benzenecarbohydroxamic acid], the 50% inhibitory concentration (IC50) worked out at 6 nM. For the compound `O=C(NO)c1ccc(Cn2nnnc2-c2ncccn2)cc1` [comp. 124, 4-[(5-pyrimidin-2-yltetrazol-1-yl)methyl]benzenecarbohydroxamic acid], the half-maximal inhibitory concentration (IC50) worked out at 72 nM. Still for that read-out and setting: with `O=C(NO)c1ccc(Cn2nnc(-c3ccc(C(F)(F)F)cn3)n2)cc1` [comp. 126, 4-[[5-[5-(trifluoromethyl)-2-pyridyl]tetrazol-2-yl]methyl]benzenecarbohydroxamic acid] the figure was 86 nM.

Take `O=C(NO)c1ccc(Cn2nnnc2-c2ccc(C(F)(F)F)cn2)cc1` [comp. 127, 4-[[5-[5-(trifluoromethyl)-2-pyridyl]tetrazol-1-yl]methyl]benzenecarbohydroxamic acid]: the half-inhibitory concentration (IC50) stood at 9 nM.

`O=C(NO)c1cc(F)c(Cn2nnc(-c3ccc(C(F)(F)F)cn3)n2)c(F)c1` [comp. 128, 3,5-difluoro-4-[[5-[5-(trifluoromethyl)-2-pyridyl]tetrazol-2-yl]methyl]benzenecarbohydroxamic acid]: the half-inhibitory concentration (IC50) was 45 nM. The same measure, in the same setting: to `O=C(NO)c1ccc(Cn2nnc(-c3ncc(C(F)(F)F)cc3N3CCOCC3)n2)cc1` [comp. 130, 4-[[5-[3-morpholino-5-(trifluoromethyl)-2-pyridyl]tetrazol-2-yl]methyl]benzenecarbohydroxamic acid] belongs 837 nM; to `O=C(NO)c1ccc(Cn2nnnc2-c2ncc(C(F)(F)F)cc2N2CCOCC2)cc1` [comp. 131, 4-[[5-[3-morpholino-5-(trifluoromethyl)-2-pyridyl]tetrazol-1-yl]methyl]benzenecarbohydroxamic acid], 57 nM; to `O=C(NO)c1ccc(Cn2nnc(Cc3ccccn3)n2)cc1` [comp. 132, 4-[[5-(2-pyridylmethyl)tetrazol-2-yl]methyl]benzenecarbohydroxamic acid;2,2,2-trifluoroacetic acid], 25 nM. For the compound `O=C(NO)c1ccc(Cn2nnnc2Cc2ccccn2)cc1` [comp. 133, 4-[[5-(2-pyridylmethyl)tetrazol-1-yl]methyl]benzenecarbohydroxamic acid;2,2,2-trifluoroacetic acid], the IC50 was determined as 283 nM. For `Cn1c(Sc2c(F)cc(C(=O)NO)cc2F)nnc1-c1cc(-c2cccs2)n(-c2ccccc2)n1` [comp. 136, 3,5-difluoro-4-[[4-methyl-5-[1-phenyl-5-(2-thienyl)pyrazol-3-yl]-1,2,4-triazol-3-yl]sulfanyl]benzenecarbohydroxamic acid], the 50% inhibitory concentration (IC50) worked out at 40 nM. On to `O=C(NO)c1cc(F)c(Sc2nnc(-c3ccc(F)cc3)n2CCN2CCOCC2)c(F)c1` [comp. 138, 3,5-difluoro-4-[[5-(4-fluorophenyl)-4-(2-morpholinoethyl)-1,2,4-triazol-3-yl]sulfanyl]benzenecarbohydroxamic acid], for which the half-inhibitory concentration (IC50) worked out at 12 nM.

In the case of `O=C(NO)c1cc(F)c(Sc2nnc(-c3ccco3)n2Cc2ccccc2)c(F)c1` [comp. 142, 4-[[4-benzyl-5-(2-furyl)-1,2,4-triazol-3-yl]sulfanyl]-3,5-difluoro-benzenecarbohydroxamic acid], the IC50 is 20 nM. Consider `O=C(NO)c1cc(F)c(Sc2nnc(-c3cccs3)n2Cc2ccccc2)c(F)c1` [comp. 143, 4-[[4-benzyl-5-(2-thienyl)-1,2,4-triazol-3-yl]sulfanyl]-3,5-difluoro-benzenecarbohydroxamic acid], for which the half-inhibitory concentration (IC50) came out at 25 nM. The same measure, in the same setting: with `O=C(NO)c1cc(F)c(Sc2nnc(-c3cccs3)n2Cc2ccco2)c(F)c1` [comp. 144, 3,5-difluoro-4-[[4-(2-furylmethyl)-5-(2-thienyl)-1,2,4-triazol-3-yl]sulfanyl]benzenecarbohydroxamic acid] the figure was 12 nM; with `Cn1c(Sc2c(F)cc(C(=O)NO)cc2F)nnc1-c1cc2ccccc2cn1` [comp. 148, 3,5-difluoro-4-[[5-(3-isoquinolyl)-4-methyl-1,2,4-triazol-3-yl]sulfanyl]benzenecarbohydroxamic acid], 6 nM.

For `Cn1c(Sc2c(F)cc(C(=O)NO)cc2F)nnc1-c1ccc(CN2CCCC2)o1` [comp. 207, 3,5-difluoro-4-[[4-methyl-5-[5-(pyrrolidin-1-ylmethyl)-2-furyl]-1,2,4-triazol-3-yl]sulfanyl]benzenecarbohydroxamic acid], the IC50 came out at 7 nM. The same measure, in the same setting: with `COc1ccc(C2(c3nnc(Sc4c(F)cc(C(=O)NO)cc4F)n3C)CC2)cc1` [compound 104, 3,5-difluoro-4-[[5-[1-(4-methoxyphenyl)cyclopropyl]-4-methyl-1,2,4-triazol-3-yl]sulfanyl]benzenecarbohydroxamic acid] the figure was 48 nM. `O=C(NO)c1cc(F)c(Cc2noc(-c3ccc(CN4CCCC4)o3)n2)c(F)c1` [compound 202, 3,5-difluoro-4-[[5-[5-(pyrrolidin-1-ylmethyl)-2-furyl]-1,2,4-oxadiazol-3-yl]methyl]benzenecarbohydroxamic acid]: the IC50 came out at 9 nM.

Test system in another data set: not listed separately
Kind of data set: Stability to Phase I metabolism in rat S9 liver fraction. The class given is in vitro ADME. Conditions: after 90 min, 37° C. Here is the method: Test compounds were incubated in rat and human liver S9 fraction at 37° C. up to 90 minutes in order to evaluate their stability to Phase I metabolism by hepatic enzymes. […] The reaction was stopped placing samples on ice bath and adding acidified acetonitrile. After centrifugation (10 minutes at 14000 rpm) an aliquot of the supernatant was diluted water, filtered with 0.45 μm regenerated cellulose syringe filters and injected in HPLC-UV or in LC-MS/MS. The percentages of the amount remaining at the various incubation times with respect to the initial amount were calculated. The intrinsic clearance was also calculated.
For `O=C(NO)c1ccc(Cn2nnc(-c3ccc(Cl)cc3Cl)n2)cc1` [comp. 38, 4-[[5-(2,4-dichlorophenyl)tetrazol-2-yl]methyl]benzenecarbohydroxamic acid], the “residual percentage in rat S9 fraction” value came out at 1%.

Turning to `O=C(NO)c1ccc(Cn2nnc(-c3csc4ccccc34)n2)cc1` [comp. 42, 4-[[5-(benzothiophen-3-yl)tetrazol-2-yl]methyl]benzenecarbohydroxamic acid], the “residual percentage in rat S9 fraction” value is given as 16%.

For the compound `CSc1sc(-c2nnn(Cc3ccc(C(=O)NO)cc3)n2)c2c1C(=O)CC(C)(C)C2` [comp. 54, 4-[[5-(6,6-dimethyl-3-methylsulfanyl-4-oxo-5,7-dihydro-2-benzothiophen-1-yl)tetrazol-2-yl]methyl]benzenecarbohydroxamic acid], the “residual percentage in rat S9 fraction” value is on record as 0%. Still for that read-out and setting: with `O=C(NO)c1ccc(Cn2nnc(-c3cc4ccccc4s3)n2)cc1` [comp. 55, 4-[[5-(benzothiophen-2-yl)tetrazol-2-yl]methyl]benzenecarbohydroxamic acid] the figure was 46%; with `O=C(NO)c1cc(F)c(Sc2nnc(-c3ccc(F)cc3)n2CCN2CCOCC2)c(F)c1` [comp. 138, 3,5-difluoro-4-[[5-(4-fluorophenyl)-4-(2-morpholinoethyl)-1,2,4-triazol-3-yl]sulfanyl]benzenecarbohydroxamic acid], 79%.
